Experimental data reported in patent publication US20250295610A1, “NEUROPROTECTIVE AGENTS FOR USE IN THE TREATMENT OF OPTIC NEUROPATHIES” (The Board of Trustees of the Leland Stanford Junior …, priority 2021, published 2025).
Entries after “also recorded” stand apart in the source; their conditions may differ.

Experiments:
RGCs expressing jGCaMP7s = conditions: living mice, SLO, early and later time points after ONC
Experimental: In vivo RGC Ca^2 + imaging with SLO. The mice were intravitreally injected with AAV2-mSncg-jGCaMP7s (9×10^9 vg/retina) 4 weeks before imaging. The mice were anesthetized by xylazine and ketamine after dark adaptation for 30 minutes. Mydriasis was achieved by applying a drop of 1% tropicamide solution and a drop of 2.5% phenylephrine hydrochloride solution, which prevents pupillary contraction during recording. Right after ON crush, the mice were placed on a 3D-printed mouse holder with a 37° C. heater, and a custom-made+10D mouse contact lens (3.0 mm diameter, 1.6 mm BC, PMMA clear, Advanced Vision Technologies) attached to keep the cornea from drying. The retinal fundus was imaged by the Heidelberg Spectralis SLO/OCT system (Heidelberg Engineering, Germany) with a 55° lens using the fluorescein angiography scanning mode under the same sensitivity (sensitivity 75-85) and high-resolution (1536×1536 pixels).

HEK293T cells = HEK293T cells expressing jGCaMP7s, Tm/Tg 1 μM
Experimental: HEK293T cells were seeded at 10% confluence the day before transfection in poly-D-lysin-coated glass bottom 35 mm dishes (MatTek, P35GC1.510C). Two hours prior to transfection, media was removed and 1 mL of FBS-free DMEM media was added to each well. We then mixed 2 μg of the jGCaMP7s plasmid in 100 μl DMEM. In a separate tube, we diluted 4 μl PolyJet™ (SignaGen Laboratories, SL100688) reagent in 100 μl with DMEM, and incubate for 10 minutes. The complete mixture of DNA and PolyJet was incubated for another 15 min before being added to the HEK293T cells. Six hours later, the media was changed to 1 ml/well culture media. The next day, cytosolic Ca^2 + was imaged in cells transiently transfected with jGCaMP7s through a Zeiss LSM 800 confocal microscope. Dynamic intracellular Ca^2 + influx in response to Tm/Tg-induced ER stress was measured every 10 seconds for 100 seconds before Tm/Tg treatment to acquire baseline fluorescence (F0) and for 400 seconds after Tm/Tg administration to acquire F1. ΔF=F1−F0. Data were analyzed with ImageJ.

[1] = tested on: RGC somata and axons, mouse ONC model; experiment: Neuroprotection in traumatic ON crush (ONC) model; format: in vivo; conditions: for neuroprotection of RGCs and ONs: mouse ONC model, traumatic ON injury; for GCC thickness by OCT: mouse ONC, intravitreal 2 μl of 2 mM once + i.p. 15 mg/kg daily, vs DMSO
Experimental: (§1) ON crush model. The ON was exposed intraorbitally while care was taken not to damage the underlying ophthalmic artery, and crushed with a jeweler's forceps (Dumont #5; Fine Science Tools, Foster City, California) for 5 seconds approximately 0.5 mm behind the eyeball. Eye ointment containing neomycin (Akorn, Somerset, New Jersey) was applied to protect the cornea after surgery. For compound treatment, each eye received intravitreal injection with 2 μl of 2 mM test compounds once and intraperitoneal (i.p.) injection daily (15 mg/kg) for 14 days after ONC.

[2] = tested on: XBP-1-Luc HEK293T reporter cell line (IRE1α activity and XBP-1 splicing); conditions: Tm/Tg 1 μM, 24 hours
[3] = mouse, 6 and 24 hours after injection
Experimental: Retinal tissues were homogenized with 100 μL of pre-chilled 20% acetonitrile and then diluted 2-fold with blank mouse plasma. An aliquot of 20 μL of diluted retina homogenate was extracted with 100 μL of methanol: acetonitrile (5:95, v: v) containing the internal standard (Verapamil). The mixture was shaken on a shaker for 15 minutes and then centrifuged at 3220 g for 15 minutes. An aliquot of 70 μL of the supernatant was mixed with 70 μL of water for the injection to the LC-MS. Calibration standards and quality control samples were prepared by spiking 2 μL of the test compound into 18 μL of blank mouse plasma, and the resulting plasma was processed with the unknown samples in the same batch. The extracts were analyzed by a Shimadzu LC-30AD interfaced to a Sciex API 5000 system. The extracts were injected onto an ACE 3 C18 column (50×2.1 mm, 3.0 μm) and separated by the gradient elution using water with 10 mM ammonium acetate (A) and acetonitrile with 0.1% formic acid (B) as mobile phases. The gradient program started at 10% B, held for 0.2 min, ramped to 95% B at 1.5 min, remained at 95% at 2.4 min, dropped to 10% B at 2.45 min, and stayed at 10% B till 3.2 min. […] The calibration curve fitted by linear regression was used to quantify the analytes in the matrix using Analyst software 1.6.2 (Sciex).

[4] = tested on: visual function, mouse SOHU glaucoma model; experiment: Visual function (PERG, OKR) in SOHU glaucoma model; format: in vivo; conditions: 3wpi, vs DMSO
Experimental: Control groups received the same volume of DMSO as vehicle control.
Pattern Electroretinogram (PERG) recording. After anesthetization and pupil dilation, PERG of both eyes was recorded simultaneously with the Miami PERG system (Intelligent Hearing Systems, Miami, Florida) according to manufacturer's instructions. Two consecutive recordings of 200 traces were averaged to achieve one readout; each trace recorded up to 1020 ms. The first positive peak in the waveform was designated as P1 and the second negative peak as N2. The amplitude was measured from P1 to N2.
Optokinetic Tracking Response (OKR). Mice were placed on a platform in the center of four 17-inch LCD computer monitors (Dell, Phoenix, AZ), with a video camera above the platform to capture the movement of the mouse. A rotating cylinder with vertical sine wave grating was computed and projected to the four monitors by OptoMotry software (Cere-bralMechanics Inc, Lethbridge, Alberta, Canada). […] The maximum frequency (cycle/degree) that the mouse could track was identified and recorded by investigators masked to treatment. The relative percentages of visual acuity were calculated as the ratio of maximum frequency in disease eye compared to contralateral control eye.

[5] = tested on: ONC-induced ER stress in RGCs; experiment: ER stress molecules in RGCs and ONs after ON crush (ONC); conditions: mouse, after traumatic ON injury, in vivo application
Experimental: Protein Preparation and Immunoblotting. Cell and tissue lysates were prepared in RIPA buffer (Themo Fisher Scientific, 89901) and supplemented with Halt Protease inhibitor cocktail (Themo Fisher Scientific, PI78437). The total protein concentration of lysates was measured by the Pierce BCA Protein Assay Kit (Thermo Fisher Scientific, 23227). 20 μg protein of each sample were denatured at 95° C. for 15 min in 100 mM DTT+1× Laemmli buffer before being separated by SDS-PAGE. We then transferred the protein samples to 0.2 μm nitrocellulose membranes (Bio-Rad, 1610097) and blocked with 5% BSA for 2 hours. Subsequently, the membranes were incubated with primary antibodies (1:1000) overnight at 4° C. After washing in TBST, these membranes were incubated with horseradish peroxidase-conjugated secondary antibodies (Cell Signaling, 7074S and 7076S, 1:1000) and visualized using a GE-A1600 imaging system. Images were quantified with ImageJ software. The primary antibodies used were PERK (Cell Signaling, 3192S), p-PERK (Cell Signaling, 3179S), eIF2a (Cell Signaling, 5324S), p-eIF2a (Cell Signaling, 3597L), ATF4 (Cell Signaling, 11815S), CHOP (Cell Signaling, 2895S), ATF6 (Cell Signaling, 65880T), IRE1a (Cell Signaling, 3294T), IRE1 (phosphor-S724) (Thermo Fisher, PA116927), phospho-SAPK/JNK (Thr183/Tyr185) (Cell Signaling, 9251S), phospho-p38 MAPK (Thr180/Tyr182) (Cell Signaling, 9215S), β-Actin (sigma, A5441), XBP-1s (Biolegend, 647502), XBP-1 (Santa Cruz, sc-8501), anti-RBPMS (Custom made at ProSci Inc).
as §1, with “ONC. […]” for “ONC.”

[6] = tested on: CHOP promoter-driven luciferase (CHOP-Luc) in HEK293T cells; experiment: CHOP-Luc reporter cell-based assay (HTS and retest); parameters: species or system human; conditions: Tm/Tg 1 μM; for CHOP-luciferase activity induced by ER stress (Tm/Tg): compound at 10 µM, relative to DMSO (FIG. 1d); for CHOP-luciferase activity: compound at 20 μM, 24 hours (FIG. 9e)
Experimental: ER stress reporter cell lines.
Cell-based HTS. The HTS to identify CHOP expression inhibitors was performed at the Stanford High-Throughput Bioscience Center with small molecule libraries containing 4846 total known bioactive, FDA approved drugs and clinical trial compounds; libraries included Biomol FDA, Biomol ICCB, Microsource (MS) Spectrum, Sigma LOPAC, and NIH Clinical Collection (NIH-CC). All the compounds were run in 7-point dose response based on a previous publication; except the NIH Clinical collection (446 compounds) which were tested in duplicate due to the small quantity of compounds on hand. Most of the NIH-CC was screened at 10 µM, but this varied per compound. […] We used the Pin Tool to transfer 100 nL of the compounds into 50 μL final volume. Therefore, we did a 500-fold dilution of the stock plates, which were at 10, 5, 2.5, 1.25, 0.625, 0.3125, and 0.156 mM resulting in final concentrations of 20, 10, 5, 2.5, 1.25, 0.625, and 0.3125 µM (for most of the compounds but not all). The final DMSO concentration was 0.2% for all wells. Briefly, CHOP-Luc cells were seeded in 384-well plates (Greiner Bio-One […]) at a density of 2×10^5 cells per well in 40 μL medium and cultured for 24 hours before treatment with tunicamycin (Tm)+thapsigargin (Tg) at 1 μM in 10 μL medium followed by adding 100 nL of one of the testing compounds using a Staccato SciClone ALH3000 small molecule liquid handling system (Caliper Life Sciences) and V&P Scientific 384 pin tools. AeraSeal sterile adhesive microplate seals (Excel Scientific; Victorville, CA) were used to seal plates that were incubated at 5% CO2, 37° C. for 24 hours, when luciferase activity was assayed by adding 10 μL of Bright™-Glo Luciferase reagent (Promega) to each well and detected by a Tecan Infinite M1000 Pro plate reader. Percentage of CHOP-Luc inhibition=100%−(Compound value−DMSO control value)/(Tm/Tg value−DMSO control value)×100%. The compounds achieving >30% of CHOP-Luc inhibition were considered as “hits”. Luciferase activity of all the tested compounds was determined by meta-analysis of luciferase activity in different cell lines under the control of a generic or other promoters. Any compound that appeared in more than 3 non-related luciferase screens was likely a toxic compound or luciferase inhibitor and therefore eliminated. There was no true cutoff, other than an IC50<20 µM (or the highest concentration tested).

[7] = tested on: naïve mouse retinas and ON; conditions: one month after systemic administration
Experimental: Immunohistochemistry of whole mount and cross sections of retina. After perfusion fixation with 4% PFA in PBS, mice eyeballs and ONs were dissected out and post-fixed with 4% PFA for 2 hours at room temperature. Retinas were dissected out for whole mount retina immunostaining. For cryo-section with Leica cryostat, the eyeballs and ONs were embedded in tissue-tek OCT (Sakura) on dry ice for subsequent cryo-section. The sections were blocked with 10% goat serum (Sigma, G9023) for 2 hours before incubating with primary antibodies: RBPMS 1:4000, others 1:200 overnight at 4° C. […]
RGC counting. Whole-mount retinas were immunostained with the RBPMS antibody, 6-8 fields randomly sampled from peripheral regions of each retina using a 40× lens with a Zeiss M2 epifluorescence microscope, and RBPMS+RGCs counted by Volocity software (Quorum Technologies). The percentage of RGC survival was calculated as the ratio of surviving RGC numbers in injured eyes compared to contralateral uninjured eyes. The investigators who counted the cells were masked to the treatment of the samples.
ON semi-thin sections and quantification of surviving axons. […] Two areas of 21.4 μm×29.1 μm were cropped from the center of each image, and the surviving axons within the designated areas counted manually using ImageJ. […]

[8] = tested on: three UPR pathways induced by ER stress (Tm/Tg) in HEK293T cells; experiment: UPR signaling cascades in HEK293T cells (immunoblot, RT-PCR, qPCR); format: cell-based, human; conditions: Tm/Tg 1 μM; for UPR pathways induced by ER stress: HEK293T cells, compound 10 μM; for XBP-1 mRNA splicing: RT-PCR
RGCs expressing D4ER = conditions: mouse retina explants after ONC
Experimental: Ex vivo ER Ca^2 + imaging in retina explants. ER calcium levels were measured using the Forster resonance energy transfer (FRET)-based ER targeted calcium sensor, D4ER. […] For imaging, retinas were dissected out at 3, 7 or 14dpc and plated onto laminin (Sigma, L2020) and poly-D-lysin-coated glass bottom dishes (MatTek, P35GC1.510C) and maintained in Neurobasal-A medium (ThermoFisher Scientific, 10888022) supplemented with L-glutamine (Gibco, 25030-081), penicillin/streptomycin (Gibco, 15140122) and B-27 (ThermoFisher Scientific, 0080085SA). Retina explants were imaged using a Zeiss LSM 800 microscope. ER [Ca^2 +] levels were determined by exciting D4ER at 440 nm to record the emitted light at 465-485 nm and 530-550 nm, and analyzed with ImageJ.

[9] = tested on: CHO luciferase reporter cell line driven by murine CHOP promoter; conditions: different CHO luciferase reporter cell line; cited from earlier work
[10] = HEK293T, immunoblot, 10 μM, 24 hours

Structure (SMILES)	neuroprotection of RGCs and ONs [1]	GCC thickness by OCT ([1]; 14dpc)	RGC ER stress [5]	CHOP-luciferase activity induced by ER stress (Tm/Tg) ([6]; 24 hours)	UPR pathways induced by ER stress [8]	CHOP-luciferase activity [6]	further results
CNCCCC12CCC(c3ccccc31)c1ccccc12 [maprotiline]	significantly protects	significantly thicker	effectively inhibits	significantly inhibited	inhibit all three UPR pathways		intra-RGC Ca2+ levels after ONC (RGCs expressing jGCaMP7s): significantly decreased; Tm/Tg-induced intracellular Ca2+ influx (HEK293T cells): significantly blocked; XBP-1 splicing induced by Tm/Tg (XBP-1s-Luc) [2]: dose-dependent inhibition; maprotiline in the retina after i.p. injection (LC-MS) [3]: presence of maprotiline in the retina; amplitude of PERG [4]: improved; visual acuity (OKR) [4]: improved; RGC or ON degeneration [7]: no RGC or ON degeneration; immune cell infiltration in retina and ON [7]: no immune cell infiltration; downstream genes of UPR at the mRNA levels (qPCR) ([8]; HEK293T, 12 hours, 10 µM): the most striking modulation; XBP-1 mRNA splicing ([8]; HEK293T, 10 μM, 24 hours): significantly inhibited; IRE1α phosphorylation [8, 10]: inhibited; JNK phosphorylation [8, 10]: significantly inhibited; ER Ca2+ concentration of RGCs after ONC (D4ER FRET) (RGCs expressing D4ER): maintained ER Ca^2 + concentration at much higher levels
CN(C)CCC=C1c2ccccc2CCc2ccccc21 [amitriptyline]						inhibited	
CN1CCN(CCCN2c3ccccc3Sc3ccc(C(F)(F)F)cc32)CC1 [trifluoperazine]						inhibited	CHOP inhibitor in a previous study [9]: CHOP inhibitor
O=C(COc1ccc(Cl)cc1)NC1CCC(NC(=O)COc2ccc(Cl)cc2)CC1 (stereo not drawn) [ISRIB]	provided neuroprotection in the ONC mouse model, to a lesser degree than maprotiline; also recorded: significant neuroprotection			no effect; also recorded: did not have a significant inhibition effect			
Clc1ccc2c(c1)C(N1CCNCC1)=Nc1ccccc1O2 [amoxapine]	significantly protects	significantly thicker	effectively inhibits	significantly inhibited	inhibit all three UPR pathways		XBP-1 mRNA splicing ([8]; HEK293T, 10 μM, 24 hours): significantly inhibited
COc1ccc2c(c1)CC[C@@H]1[C@@H]2CC[C@]2(C)[C@@H](NCCCCCCN3C(=O)C=CC3=O)CC[C@@H]12 [U-73122]							protection of RGC axons ([1]; mouse, after ONC injury, 14dpc): protected; protection of RGC somata ([1]; mouse, after ONC injury, 14dpc): protected
Cn1cc(-c2ccc3c(c2)CCN3C(=O)Cc2cccc(C(F)(F)F)c2)c2c(N)ncnc21 [GSK2606414]							CHOP-luciferase activity induced by Tm/Tg, reference compounds ([6]; FIG. 1d and FIG. 9e (10 µM and 20 μM), 24 hours): significantly inhibited
CN(C)CCCN1c2ccccc2CCc2ccc(Cl)cc21 [clomipramine]						inhibited	
Clc1ccc2c(c1)CCc1cccnc1C2=C1CCNCC1 [desloratadine]	significantly protects	significantly thicker	effectively inhibits		inhibit all three UPR pathways		JNK phosphorylation [8, 10]: significantly inhibited
CNCCCN1c2ccccc2CCc2ccccc21 [desipramine]						inhibited	
